Test results taken from patent US7674823B2, “DNA-PK inhibitors” (Cancer Research Technology Limited, priority 2001, dated 2010).
Read-outs that look alike come from different tables or passages of the source.

Key:
[1] = tested on: HeLa cells; experiment: Enhancement Ratio: cell growth inhibition (SRB assay) after 2 Gy irradiation; assay type: cell-based; details: inhibitor 25 μM
Description: DNA-PK inhibitors were used at a fixed concentration of 25 micromolar. Radiation was delivered by a Faxitron 43855D X-ray system at a dose rate of 1Gy per minute The Enhancement ratio at 2 Gy irradiation was calculated from the formula: [formula] Cell growth was assessed using the sulforhodamine B (SRB) assay (Skehan, P., Storung, R., Scudiero, R., Monks, […]., Kenny, S. and Boyd, M. R. (1990) New calorimetric cytotoxicity assay for anticancer-drug screening. J. Natl. Cancer Inst. 82:1107-1112). 400 HeLa cells were seeded into each well of a flat-bottomed 48-well microtiter plate in a volume of 200 μl and incubated for 6 h at 37° C. […] Cells were allowed to grow for a further 1 h before irradiation or mock irradiation. Cells untreated with DNA-PK inhibitor or unirradiated were used as a control. Cells treated with DNA-PK inhibitor alone were used to assess the growth inhibition by the DNA-PK inhibitor. Cells were left for a further 16 h before replacing the media and allowing the cells to grow for a further 6 days at 37° C. The media was then removed and the cells fixed with 200 μl of ice cold 10% (w/v) trichloroacetic acid. The plates were incubated at 4° C. for 20 minutes and then washed four times with water. Each well of cells was then stained with 200 μl of 0.4% (w/v) SRB in 1% acetic acid for 20 minutes before washing four times with 1% acetic acid. Plates were then dried for 2 h at room temperature. The dye from the stained cells was solubilized by the addition of 100 μl of 10 mM Tris Base into each well. Plates were gently shaken and left at room temperature for 30 minutes before measuring the optical density at 564 nm on a Microquant microtiter plate reader.

[2] = target: T1, Mammalian DNA-PK, isolated from Hela cell nuclear extract (Homo sapiens, UniProt P78527); experiment: DNA-PK inhibition assay (33P-ATP, filter binding); assay type: biochemical
T1 construct: Mammalian DNA-PK, isolated from Hela cell nuclear extract; endogenous in cells; host or cells: HeLa cell nuclear extract (purified per Gell and Jackson 1999)
Summary of the method: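 DNA-PK from HeLa nuclear extract preincubated with compound 10 min at 30 °C, then started with 50 μM Na-ATP final, ^33P-γATP and 30mer dsDNA (10 ng/μl), run 45 min at 30 °C.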

[3] = target: T2, ATM protein (Homo sapiens, UniProt Q13315); experiment: ATM inhibition assay (immunoprecipitated ATM, GSTp53N66 substrate); assay type: biochemical
T2 construct: ATM protein was immunoprecipitated from HeLa cell nuclear extract; endogenous in cells; host or cells: HeLa cell nuclear extract (immunoprecipitate)
T2 sequence (Q13315 whole entry): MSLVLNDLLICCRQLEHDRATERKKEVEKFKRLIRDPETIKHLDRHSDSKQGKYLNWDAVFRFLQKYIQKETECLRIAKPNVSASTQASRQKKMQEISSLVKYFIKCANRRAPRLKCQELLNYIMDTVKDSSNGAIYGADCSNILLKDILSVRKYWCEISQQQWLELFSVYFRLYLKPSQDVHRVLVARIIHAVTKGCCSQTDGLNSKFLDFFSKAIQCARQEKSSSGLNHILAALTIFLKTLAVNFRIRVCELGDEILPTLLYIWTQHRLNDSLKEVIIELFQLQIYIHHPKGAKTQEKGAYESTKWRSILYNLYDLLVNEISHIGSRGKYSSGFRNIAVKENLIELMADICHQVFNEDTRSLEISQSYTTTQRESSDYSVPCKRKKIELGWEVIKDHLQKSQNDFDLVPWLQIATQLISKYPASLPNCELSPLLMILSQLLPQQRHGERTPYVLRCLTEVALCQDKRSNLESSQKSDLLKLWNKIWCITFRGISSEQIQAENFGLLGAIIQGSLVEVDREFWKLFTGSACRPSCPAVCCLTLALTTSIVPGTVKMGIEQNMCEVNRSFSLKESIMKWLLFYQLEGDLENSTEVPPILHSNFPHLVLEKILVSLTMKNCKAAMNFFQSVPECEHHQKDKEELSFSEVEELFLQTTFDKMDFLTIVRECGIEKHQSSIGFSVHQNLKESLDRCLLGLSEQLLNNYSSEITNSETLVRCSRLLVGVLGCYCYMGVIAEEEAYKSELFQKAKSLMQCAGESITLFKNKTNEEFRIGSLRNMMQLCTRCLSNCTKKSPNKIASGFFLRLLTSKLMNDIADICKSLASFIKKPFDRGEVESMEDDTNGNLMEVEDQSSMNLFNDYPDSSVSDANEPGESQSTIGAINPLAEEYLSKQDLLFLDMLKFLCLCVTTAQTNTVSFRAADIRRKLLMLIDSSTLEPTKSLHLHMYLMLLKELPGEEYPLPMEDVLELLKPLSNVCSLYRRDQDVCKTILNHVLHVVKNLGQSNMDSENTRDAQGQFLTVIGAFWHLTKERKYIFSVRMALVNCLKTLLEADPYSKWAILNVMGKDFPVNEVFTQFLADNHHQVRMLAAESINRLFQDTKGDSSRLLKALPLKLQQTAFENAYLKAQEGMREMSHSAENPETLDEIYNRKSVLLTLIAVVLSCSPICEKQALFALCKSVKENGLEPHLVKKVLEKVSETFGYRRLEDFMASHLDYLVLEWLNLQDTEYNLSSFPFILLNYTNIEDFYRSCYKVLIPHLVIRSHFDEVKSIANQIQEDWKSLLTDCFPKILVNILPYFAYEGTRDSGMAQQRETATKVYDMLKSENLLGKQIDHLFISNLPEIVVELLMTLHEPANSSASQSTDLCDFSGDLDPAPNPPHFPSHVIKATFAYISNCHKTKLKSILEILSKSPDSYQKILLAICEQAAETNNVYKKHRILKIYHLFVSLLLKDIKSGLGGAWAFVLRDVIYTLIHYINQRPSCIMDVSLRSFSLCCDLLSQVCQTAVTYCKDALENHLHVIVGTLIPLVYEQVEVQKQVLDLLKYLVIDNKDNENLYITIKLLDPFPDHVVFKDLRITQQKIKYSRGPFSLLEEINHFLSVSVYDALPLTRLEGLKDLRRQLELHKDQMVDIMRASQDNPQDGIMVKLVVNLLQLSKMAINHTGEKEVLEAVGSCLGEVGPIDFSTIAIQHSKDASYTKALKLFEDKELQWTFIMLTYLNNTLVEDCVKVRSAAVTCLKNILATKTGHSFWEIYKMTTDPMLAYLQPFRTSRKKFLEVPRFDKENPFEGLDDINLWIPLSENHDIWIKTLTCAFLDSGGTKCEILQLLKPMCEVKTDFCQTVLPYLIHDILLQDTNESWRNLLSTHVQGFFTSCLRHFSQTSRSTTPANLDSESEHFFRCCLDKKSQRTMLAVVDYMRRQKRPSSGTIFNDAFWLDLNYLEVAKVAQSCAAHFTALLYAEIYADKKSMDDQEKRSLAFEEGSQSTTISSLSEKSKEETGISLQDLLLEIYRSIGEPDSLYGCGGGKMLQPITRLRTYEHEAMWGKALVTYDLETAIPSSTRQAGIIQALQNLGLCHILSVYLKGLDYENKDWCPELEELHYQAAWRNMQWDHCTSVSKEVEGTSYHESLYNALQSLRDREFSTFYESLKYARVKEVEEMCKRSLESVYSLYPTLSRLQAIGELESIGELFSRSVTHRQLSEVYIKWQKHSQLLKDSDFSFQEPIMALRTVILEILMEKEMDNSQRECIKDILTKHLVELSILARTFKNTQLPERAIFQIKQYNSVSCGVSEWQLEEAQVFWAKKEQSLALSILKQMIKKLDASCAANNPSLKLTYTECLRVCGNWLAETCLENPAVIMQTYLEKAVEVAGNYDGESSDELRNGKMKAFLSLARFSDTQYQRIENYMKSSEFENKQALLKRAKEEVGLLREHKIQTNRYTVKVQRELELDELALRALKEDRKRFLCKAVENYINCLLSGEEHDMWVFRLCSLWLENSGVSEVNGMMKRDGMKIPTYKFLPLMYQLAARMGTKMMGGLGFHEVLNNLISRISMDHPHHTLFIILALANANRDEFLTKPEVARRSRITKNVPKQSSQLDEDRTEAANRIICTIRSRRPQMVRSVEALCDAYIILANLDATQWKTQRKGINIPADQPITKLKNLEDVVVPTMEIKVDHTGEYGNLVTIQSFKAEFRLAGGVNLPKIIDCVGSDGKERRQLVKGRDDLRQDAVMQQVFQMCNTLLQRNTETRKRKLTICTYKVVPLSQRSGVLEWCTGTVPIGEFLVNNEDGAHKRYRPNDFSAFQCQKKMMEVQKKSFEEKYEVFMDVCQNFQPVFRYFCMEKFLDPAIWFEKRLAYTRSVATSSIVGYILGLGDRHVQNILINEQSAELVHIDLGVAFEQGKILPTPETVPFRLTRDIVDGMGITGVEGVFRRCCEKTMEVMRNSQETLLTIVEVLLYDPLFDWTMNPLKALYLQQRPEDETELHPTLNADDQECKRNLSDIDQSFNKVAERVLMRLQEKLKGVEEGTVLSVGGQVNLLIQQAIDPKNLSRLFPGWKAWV
Description: (§1) In order to assess the inhibitory action of the compounds against ATM in vitro, the following assay was used to determine IC50 values.
(§2) ATM protein was immunoprecipitated from HeLa cell nuclear extract using rabbit polyclonal antisera raised to the C-terminal ˜500 amino-acid residues of the human ATM protein. The immunoprecipitation was performed according to the methodology described by Banin, S. et al. (1998) Enhanced phosphorylation of p53 by ATM in response to DNA damage. Science 281:1674-1677. 10 μl of immunoprecipitated ATM in Buffer C (50 mM Hepes, pH 7.4, 6 mM MgCl2, 150 mM NaCl, 0.1 mM sodium orthovanadate, 4 mM MnCl2, 0.1 mM dithiothreitol, 10% glycerol) was added to 32.5 μl of buffer C containing 1 μg of the ATM substrate GSTp53N66 in a V-bottomed 96 well polypropylene plate. The GSTp53N66 substrate is the amino terminal 66 amino acid residues of human wild type p53 fused to glutathione S-transferase. ATM phosphorylates p53 on the residue serine 15 (Banin, S. et al. (1998) Enhanced phosphorylation of p53 by ATM in response to DNA damage. Science 281:1674-1677). Varying concentrations of inhibitor were then added. […] After 10 minutes of incubation at 37° C., the reactions were initiated by the addition of 5 μl of 50 μM Na-ATP. After 1 h with shaking at 37° C., 150 μl of phosphate buffered saline (PBS) was added to the reaction and the plate centrifuged at 1500 rpm for 10 minutes. 5 μl of the reaction was then transferred to a 96 well opaque white plate containing 45 μl of PBS to allow the GSTp53N66 substrate to bind to the plate wells. The plate was covered and incubated at room temperature for 1 h with shaking before discarding the contents. The plate wells were washed twice by the addition of PBS prior to the addition of 3% (w/v) bovine serum albumin (BSA) in PBS. The plate was incubated at room temperature for 1 h with shaking before discarding the contents and washing twice with PBS. To the wells, 50 μl of a 1:10,000 dilution of primary phosphoserine-15 antibody (Cell Signaling Technology, #9284L) in 3% BSA/PBS was added to detect the phosphorylation event on the serine 15 residue of p53 elicited by the ATM kinase. After 1 h of incubation at room temperature with shaking, the wells were washed four times with PBS prior to the addition of an anti-rabbit HRP conjugated secondary antibody (Pierce, 31462) with shaking for 1 h at room temperature. The wells were then washed four times with PBS before the addition of chemiluminescence reagent (NEN Renaissance, NEL105). The plate was then shaken briefly, covered with a transparent plate seal and transferred to a TopCount NXT for chemiluminescent counting. Counts per second, following a one second counting time, were recorded for each reaction. The inhibition of ATM activity by compounds was calculated as described above for the DNA-PK assay.
(§3) The selectivity was determined by the following equation: […]

[4] = tested on: ATM protein; experiment: as above; assay type: biochemical, human; details: selectivity ratio from the IC50s for ATM and DNA-PK
Description: as §1, §2, §3

[5] = tested on: PI 3-kinase (p110α/p85α); experiment: PI 3-kinase inhibition assay; assay type: biochemical; details: selectivity ratio from the IC50s for PI 3-kinase and DNA-PK
From the text: (§4) In order to assess the inhibitory action of the compounds against PI 3-kinase in vitro, the following assay was used to determine IC50 values.
(§5) Baculoviral recombinant GST-fused PI 3-kinase (p110α/p85α) was purified from Sf9 insect cells using GSH-sepharose affinity chromatography as described (Wymann, M. T et al., (1996) Wortmannin inactivates phosphoinositide 3-kinase by covalent modification of Lys-802, a residue involved in the phosphate transfer reaction. Mol. Cell Biol. 16:1722-1733). PI 3-kinase (1 μl) was diluted in reaction buffer (89 μl of 50 mM Hepes pH 7.5, 150 mM NaCl, 0.1 mM Sodium Orthovanadate, containing 20 μg of phosphatidylinositol) and varying concentrations of inhibitor compound added. […] Reactions were incubated for a further 20 minutes at 37° C., before quenching with the addition of 400 μl of chloroform/methanol (1:1). Reactions were acidified by the addition of 200 μl of 1M HCl, before separation of the organic and aqueous phases by centrifugation at 10,000 g for 30 seconds. The organic phase was transferred to a fresh tube and washed twice with 150 μl of 1M hydrochloric acid/methanol (1:1), discarding the aqueous phase. The washed reaction product was then placed in a white 96-well plate with 100 μl of scintillation fluid and transferred to a TopCount NXT for scintillation counting. Counts per minute, following a one minute counting time, were recorded for each reaction. The inhibition of PI 3-kinase activity by compounds was calculated as described above for the DNA-PK assay.
as §3

[6] = target: T3, PI 3-kinase (p110α/p85α) (UniProt P32871); experiment: PI 3-kinase inhibition assay; assay type: biochemical; details: GST-fused p110α/p85α
T3 construct: other: GST-fused p110α/p85α
From the text: as §4, §5, §3

[7] = target: PI 3-kinase; details: stated to be the same as for DNA-PK; cited from earlier work
[8] = tested on: cells; details: literature; cited from earlier work
[9] = IC50 of less than about 1 μM and/or % inhibition of more than about 50 at 1 μM, read-out: DNA-PK inhibition IC50 (particular efficacy)
[10] = concentration at which 50% of the enzyme activity is inhibited, read-out: DNA-PK Inhibition IC50

Structure (SMILES) | IC50 [2, 9] [µM] | IC50 [2, 10] [µM] | IC50 [3] [µM] | Δ(DNA-PK/PI 3-K) [5] | IC50 [6] [µM] | melting point [°C] | Enhancement Ratio (ER) [1] | Δ(DNA-PK/ATM) [4] | IC50 [7] [µM] | sensitisation of cells to the effects of IR [8]
O=c1cc(N2CCOCC2)oc2cc(OCc3ccc(Cl)cc3)ccc12 [Compound 415, 7-(4-chlorobenzyloxy)-2-(morpholin-4-yl)-chromen-4-one] | < 1 | 0.5 | > 100 | >200 | > 100 |  | 1.86 | >200 |  | 
O=c1cc(N2CCOCC2)oc2c(-c3ccccc3)cccc12 [LY294002] |  |  |  |  |  |  |  |  | ~1 | weakly sensitise
O=c1cc(N2CCSCC2)oc2c1ccc1ccccc12 [Compound 296, 2-(thiomorpholin-4-yl)-benzo[h]chromen-4-one] |  | 1.2 | > 100 | 5 | 6 | 171 to 173 |  | >83 |  | 
O=c1cc(N2CCOCC2)oc2cc3ccccc3cc12 [Compound 301, 2-(morpholin-4-yl)-benzo[g]chromen-4-one] | < 1 | 0.4 | > 50 | 40 | 16 | 219 |  | >125 |  | 
O=c1cc(N2CCOCC2)oc2cc(OCc3ccccc3)ccc12 [Compound 337, 7-Benzyloxy-2-morpholin-4-yl-chromen-4-one] | < 1 | 0.65 | > 100 |  |  |  | 1.12 | >154 |  | 
O=c1cc(N2CCOCC2)nc2c3ccccc3ccn12 [Compound 5, 2-morpholin-1-yl-pyrimido-[2,1-a]isoquinolin-4-one] | < 1 | 0.35 | > 100 | >143 |  |  | 1.63 | >286 |  | 
O=c1cc(N2CCOCC2)oc2cc(OCc3ccc(Br)cc3)ccc12 [Compound 416, 7-(4-Bromobenzyloxy)-2-morpholin-4-yl-chromen-4-one] | < 1 | 0.6 | > 100 |  |  | 221 to 222 | 1.32 | >167 |  | 

More lines, main results first:

IC50 [2, 9] [µM] | IC50 [2, 10] [µM] | IC50 [3] [µM] | Δ(DNA-PK/PI 3-K) [5] | IC50 [6] [µM] | melting point [°C] | Structure (SMILES) | Enhancement Ratio (ER) [1] | Δ(DNA-PK/ATM) [4] | IC50 [7] [µM] | sensitisation of cells to the effects of IR [8]
 | 1.5 | > 100 |  | 95 |  | O=c1cc(N2CCOCC2)oc2cc(OCc3ccc(F)cc3)ccc12 [Compound 414, 7-(4-Fluoro-benzyloxy)-2-morpholin-4-yl-chromen-4-one] | 1.69 |  |  | 
 |  | > 100 | 43 | 15 |  | COc1ccc(-c2cc(=O)cc(N3CCOCC3)o2)cc1 [Compound 288, 2-(4-Methoxyphenyl)-6-(morpholin-4-yl)-pyran-4-one] |  | >286 |  | 
 |  | > 50 | 82 | 37 | 156 | CC(C)(C)c1ccc(-c2cc(=O)cc(N3CCOCC3)o2)cc1 [Compound 289, 2-(4-tert-butyl-phenyl)-6-(morpholin-4-yl)-pyran-4-one] |  | >111 |  | 
 |  | > 50 | 38 | 30 | 148 to 150 | O=c1cc(-c2ccccc2)oc(N2CCOCC2)c1 [Compound 285, 2-(morpholin-4-yl)-6-phenyl-pyran-4-one] |  | >63 |  | 
< 1 | 0.4 | > 100 | 50 | 20 |  | O=c1cc(N2CCOCC2)oc2c1ccc1ccccc12 [Compound 293, 2-(morpholin-4-yl)-benzo[h]chromen-4-one] | 1.7 | >250 |  | 
 |  | > 100 | 110 | 11 |  | O=c1cc(N2CCOCC2)oc2ccc3ccccc3c12 [Compound 310, 2-morpholin-4-yl-benzo[f]chromen-4-one] |  | >1000 |  | 
 |  | > 100 | 52 | 13 | 216 to 217 | O=c1cc(-c2ccc(F)cc2)oc(N2CCOCC2)c1 [Compound 292, 6-(4-fluorophenyl)-2-(morpholin-4-yl)pyran-4-one] |  | >400 |  | 
